# Measured values reported in a melting point compilation (Tetko et al.).
row,Structure (SMILES),melting point [°C]
1,CCOc1cc(N2CCC(O)CC2)ccc1[N+](=O)[O-],109 to 111
2,Cc1ccc(NC(=O)CN(C)C(=O)CCl)cc1,145 to 147
3,O=C(O)c1cn(C2CCCCC2)nn1,163 to 165
4,NC(=O)C1CCCCN1C(=O)CCl (configuration not stated),149 to 151
5,Cc1ccc2cc(C(=O)O)[nH]c2c1,209 to 211
6,Cc1cc(NC(=O)C(Br)C(C)C)no1 (configuration not stated),96 to 98
7,COc1ccc(CNS(=O)(=O)CC#N)cc1OC,126 to 128
8,O=C(O)c1cc(Cl)ncc1[N+](=O)[O-],178 to 180
9,COC(=O)C=Cc1ccc(C(F)(F)F)cc1,74 to 76
10,NCc1cc[nH]n1,58 to 60
11,CC1CN(S(=O)(=O)c2ccc(C(=O)O)cc2)CC(C)O1 (configuration not stated),268 to 270
12,Clc1cnc(N2CCNCC2)c(Cl)c1,59 to 61
13,OCc1noc(-c2ccc(F)cc2)n1,96 to 98
14,N#CC1(c2ccc(C(=O)O)cc2)CC1,219 to 221
15,O=C(Nc1cccc(Br)c1)C1CCNCC1,178 to 180
16,COc1cccc(NC(=O)COc2ccc(C(=O)O)cc2)c1,131 to 134
17,CCCc1noc2nc(C)cc(C(=O)O)c12,169 to 171
18,O=C1CC(C(=O)O)c2ccc(F)cc2N1 (configuration not stated),214 to 216
19,C=CCNS(=O)(=O)c1ccc(C(=O)O)cc1,215 to 217
20,COCCn1cnnc1S,79 to 81
21,Cc1nnc2n1CC(CO)CC2 (configuration not stated),158 to 160

row,Structure (SMILES),melting point [°C]
1,CCCCc1ccc(C(=O)Nc2sccc2C(=O)O)cc1,183 to 185
2,CCN(CC)S(=O)(=O)c1ccc2nc(O)cc(C(=O)O)c2c1,310 to 312
3,CNC(=O)c1cc(OC)ccc1N,119 to 121
4,COc1cc(C(=O)O)on1,145 to 147
5,NC1CCC2SCCSC12 (configuration not stated),49 to 51
6,O=C(O)CCCc1cc(Cl)sc1Cl,42 to 44
7,CC(O)C(NC(=O)C(C)(C)C)C(=O)O (configuration not stated),156 to 158
8,COc1ccc(S(=O)(=O)N2CCOCC2)cc1C(=O)O,180 to 184
9,COCCNS(=O)(=O)c1ccc(C(=O)O)cc1,254 to 256
10,CC(=O)N(c1ccc(C)cc1)c1nc(C=O)cs1,166 to 168
11,CC(C)N(C)C(=O)C1CCN(C(=O)CCl)CC1,110 to 112
12,CCOc1cc(Br)c(C=O)cc1OCC,71 to 72
13,NCc1ccc(NC(=O)c2ccc(F)cc2)cc1,135 to 137
14,O=C(CO)Nc1ccc(C(F)(F)F)cc1,104 to 106
15,O=C(CCl)NCC(=O)Nc1ccc(F)c(F)c1F,160 to 162
16,CC1CCCC(NC(=O)NC(=O)CCl)C1C (configuration not stated),131 to 133
17,COC(=O)c1c(-c2cnn(C)c2)csc1N,128 to 130
18,C=Cc1nc(-c2ccc(Cl)cc2)no1,62 to 64
19,O=C1CCC2SCCSC12 (configuration not stated),81 to 83
20,CCn1c(C)nc2cc(S(=O)(=O)C(F)F)ccc21,161 to 163
21,COc1ccc(C2C(C(=O)O)CCC(=O)N2c2ccc(C)cc2)cc1 (configuration not stated),201 to 203

row,Structure (SMILES),melting point [°C]
1,CCNC(=O)OCC(F)(F)F,27 to 29
2,Cc1cc(C)nc(-n2nc(C(=O)O)cc2C)n1,189 to 191
3,CCc1cc(C(=O)O)sc1C,108 to 110
4,O=C(CC1CCCCC1)Nc1cccc2c1CCCN2,192 to 194
5,O=C(CCl)Nc1cc(Cl)ccc1F,98 to 102
6,O=C1COc2cc(Br)c(S(=O)(=O)Cl)cc2N1,211 to 213
7,COCc1nnc(NN)s1,109 to 111
8,NS(=O)(=O)C1CCOCC1,129 to 131
9,Cc1sc2nc(N)[nH]c(=O)c2c1C,353 to 355
10,CC(Sc1ccc(Br)cc1)C(=O)O (configuration not stated),113 to 115
11,CCC(=O)c1c(C)nn(C)c1C,50 to 52
12,Cc1cc2c(cc1C)OC(C(=O)O)C2 (configuration not stated),149 to 151
13,Cc1nsc2ncc(C(=O)O)cc12,179 to 181
14,N#CCc1c[nH]c2ccc(F)cc12,54 to 56
15,COC(=O)Cc1ccc(S(=O)(=O)Cl)s1,59 to 61
16,CC(C)c1ccc(C(CN)NC(=O)OC(C)(C)C)cc1 (configuration not stated),123 to 125
17,CS(=O)(=O)CCCC(=O)O,78 to 80
18,NNC(=O)NC1CC1,64 to 66
19,CS(=O)(=O)c1c(F)cc(N)cc1F,169 to 171
20,Cc1nc(Cl)c2c3c(sc2n1)CC(C)CC3 (configuration not stated),89 to 91

# More lines, now with the values ahead:
row,melting point [°C],Structure (SMILES)
1,66 to 68,Nc1ccc(OCC(F)(F)F)cc1
2,217 to 219,Cc1nc(-c2ccccc2Cl)sc1C(=O)O
3,139 to 141,COc1ccc(C(=O)O)nn1
4,52 to 54,Cc1ccccc1COc1cccc(CC(=O)O)c1
5,47 to 49,COc1ccc(C(C)(C)O)c(OCc2ccccc2)c1
6,126 to 128,CS(=O)(=O)Nc1cccc(CN)c1
7,159 to 161,O=C(O)c1cc(OCc2ccccc2)ccn1
8,66 to 68,CC(C)c1ccc(SCC(=O)O)cc1
9,109 to 111,COc1cccc(-c2cc(N)n(-c3ccc(C)cc3)n2)c1
10,134 to 136,c1ccc(-c2noc(CSc3nnc(-c4ccncc4)o3)n2)cc1
11,213 to 215,O=C(O)c1ccc(Cl)c(S(=O)(=O)Nc2ccccc2Cl)c1
12,182 to 184,c1ccc2sc(NCCCN3CCOCC3)nc2c1
13,238 to 240,O=C(O)c1cc(C2CC2)nc2c1cnn2Cc1ccncc1
14,219 to 221,Clc1ccc(-c2nnc(Cl)c3ccccc23)cc1Cl
15,92 to 94,CCC(=CC(=O)O)c1ccccc1
16,305 to 307,O=C(O)c1cccc(NC(=O)c2ccc3[nH]cnc3c2)c1
17,209 to 211,O=C(O)c1cc2c(F)cccc2[nH]1
18,82 to 84,CC(C)C(C(=O)O)c1cccc(Cl)c1 (configuration not stated)
19,249 to 251,Nc1cccc(-n2ccc(C(=O)O)n2)c1
20,111 to 113,Cc1ccccc1C(=O)NC(CC(C)C)C(=O)O (configuration not stated)

row,melting point [°C],Structure (SMILES)
1,180 to 182,Cc1nc2sccn2c1CO
2,103 to 105,COC(=O)CC1c2ccccc2CCN1S(C)(=O)=O (configuration not stated)
3,104 to 106,N#CCc1ccnc(N)c1
4,153 to 155,N#Cc1cc(Cl)nc2ccccc12
5,77 to 79,O=C1CCCN1c1ccccc1[N+](=O)[O-]
6,218 to 220,O=C(O)CN1C(=O)c2ccccc2S1(=O)=O
7,169 to 171,Cc1cccc(S(N)(=O)=O)c1Cl
8,153 to 155,O=C(O)Cc1ccc(OCc2ccccn2)cc1
9,161 to 165,Cc1cc(C)cc(OCC(=O)N2Cc3ccccc3CC2C(=O)O)c1 (configuration not stated)
10,209 to 211,COC(=O)c1cnc(N)nc1
11,133 to 135,COc1ccccc1OCCC(=O)O
12,186 to 188,O=c1c(Cl)c(Cl)cnn1-c1ccc(Cl)cc1
13,98 to 100,Nc1ccccc1Oc1ccncc1
14,166 to 168,Ic1cnc2ccccn12
15,179 to 181,O=C(Nc1ccccc1)c1ccc(CBr)cc1
16,138 to 140,CC(C)n1c(S)nc2ccccc21
17,161 to 163,COC(=O)c1cc(C(=O)O)n(-c2ccccc2)n1
18,85 to 87,O=C(O)COc1cccc(C(F)(F)F)c1
19,142 to 144,CCCc1nc(C(=O)O)nn1-c1ccccc1Cl
20,234 to 236,CCC(=O)Nc1cc2ccccc2cc1C(=O)O
